*1 amine or outer side, *2 acyl side, *3 side chain or, on linkers, in order; H or OH if unused. Where a SMILES comes first, the peptide text is derived from it. Bridges are numbered along the chain shown (N, C = ends). [ ]: non-standard residue; d: D form. The star is where a group is joined. C20 diacid = O=C(O)CCCCCCCCCCCCCCCCCCC(=O)*; γGlu = O=C(O)[C@H](CCC(=O)[*:2])N[*:1]; Hyp = O=C(O)[C@@H]1C[C@@H](O)CN1; NMeI = CC[C@H](C)[C@H](NC)C(=O)O; Aad = N[C@@H](CCCC(=O)O)C(=O)O; Orn = NCCC[C@H](N)C(=O)O; Sar = CNCC(=O)O
Columns and labels:
[1] = molecular target: T1, human calcitonin receptor (hCTR2) (Homo sapiens, UniProt P30988); test: hCTR2 cAMP assay (AlphaScreen) in COS7 cells; type: cell-based; conditions: cAMP induction, COS7 cells expressing hCTR2; Table 1; read-out: hCTR2 EC50
T1 construct: expressed in transfected cells
T1 sequence (P30988 25-474): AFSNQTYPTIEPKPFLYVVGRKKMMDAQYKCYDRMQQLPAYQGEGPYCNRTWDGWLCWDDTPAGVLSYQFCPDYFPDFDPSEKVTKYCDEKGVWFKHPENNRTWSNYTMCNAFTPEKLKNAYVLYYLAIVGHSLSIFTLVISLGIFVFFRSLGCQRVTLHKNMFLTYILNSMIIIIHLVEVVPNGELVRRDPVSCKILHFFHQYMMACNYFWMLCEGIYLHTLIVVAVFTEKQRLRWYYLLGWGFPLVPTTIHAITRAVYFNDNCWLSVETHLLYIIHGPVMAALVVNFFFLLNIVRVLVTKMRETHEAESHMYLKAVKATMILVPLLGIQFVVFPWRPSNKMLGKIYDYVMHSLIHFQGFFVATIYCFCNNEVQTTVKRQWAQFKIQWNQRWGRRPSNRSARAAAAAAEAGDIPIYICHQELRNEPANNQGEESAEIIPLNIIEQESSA
In short: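 cAMP induction, read by AlphaScreen after lysis, gives EC50 values via 4PL curve fitting. Peptides were applied at rising concentrations for 15 min at 37 °C, with IBMX and 0.1% casein in HEPES-buffered Tyrode pH 7.4, to COS7 cells (no endogenous RAMPs) stably expressing human CTR2.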

[2] = molecular target: T2, human amylin receptor 3 (hAMYR3), hCTR2 co-expressed with hRAMP3 (Homo sapiens, UniProt O60896+P30988); test: hAMYR3 cAMP assay (AlphaScreen) in COS7 cells; type: cell-based; conditions: cAMP induction, COS7 cells expressing hAMYR3; Table 1; read-out: hAMYR3 EC50
T2 construct: expressed in transfected cells
T2 sequence (P30988 25-474): T1 sequence (P30988 25-474)
T2 sequence (O60896 24-148 partner): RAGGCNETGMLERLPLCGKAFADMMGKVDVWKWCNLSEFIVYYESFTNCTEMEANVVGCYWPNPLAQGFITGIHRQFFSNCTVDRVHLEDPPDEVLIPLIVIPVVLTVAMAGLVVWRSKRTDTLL
In short: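 EC50 values derive from 4PL curve fits of cAMP (AlphaScreen) in lysates of RAMP-naive COS7 cells stably carrying hCTR2 plus hRAMP3. Peptide dilution series were applied for 15 min at 37 °C in pH 7.4 Tyrode buffer containing 100 µM IBMX and 0.1% casein.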

[3] = Assessment of physical stability (Thioflavin T fibrillation); type: physicochemical; design: key: FND = fibrillation not detected; FD = fibrillation detected; conditions: 1 mg/ml, 40° C., ThT; for Fibrillation pH 4.0 (Ac): 50 mM acetate buffer pH 4.0, 96 hours; for Fibrillation pH 7.0 (His): 50 mM histidine buffer pH 7.0, 96 hours; for Fibrillation pH 7.0 (Phos.): 50 mM phosphate buffer pH 7.0, 96 hours
In short: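 Fibrillation lag-time, in hours, taken where regressions of the initial stable phase and the growth phase intersect. ThT (40 μM) fluorescence monitored at 40 °C for 96 h, 10-min reads each preceded by 300 s mixing. Peptide at 1 mg/ml in 50 mM buffers: phosphate or histidine pH 7.0, acetate pH 4.0.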

[4] = Assessment of chemical stability (RP-HPLC normalized purity); type: physicochemical; conditions: for Normalized purity after 7 days, 40° C., pH 4: pH 4, 0.2 mg/ml; for Normalized purity after 7 days, 40° C., pH 4 / Normalized purity after 7 days, 40° C., pH 6 / Normalized purity after 7 days, 40° C., pH 7.5 / Normalized purity after 7 days, 40° C., pH 9: Table 1; for Normalized purity after 7 days, 40° C., pH 6: pH 6, 0.2 mg/ml; for Normalized purity after 7 days, 40° C., pH 7.5: pH 7.5, 0.2 mg/ml; for Normalized purity after 7 days, 40° C., pH 9: pH 9, 0.2 mg/ml
In short: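 Purity after 7 days at 40° C is expressed relative to T=0 (set to 100) for each pH. Samples at 0.2 mg/ml, pH 4, 6, 7.5 or 9, analyzed by RP-HPLC with UV 220 nm on C8 (ammonium formate) or C18 (TFA) gradients.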

Row | SMILES | EC50 [1] [nM] | EC50 [2] [nM] | Fibrillation pH 4.0 (Ac) [3] | Fibrillation pH 7.0 (His) [3] | Fibrillation pH 7.0 (Phos.) [3] | Normalized purity after 7 days, 40° C., pH 4 [4] | Normalized purity after 7 days, 40° C., pH 6 [4] | Normalized purity after 7 days, 40° C., pH 7.5 [4] | Normalized purity after 7 days, 40° C., pH 9 [4] | Normalized purity pH 4 (Table 5) ([4]; pH 4, repeat of Example 6 for pairs with/without Asn-Asn at 21-22) | Normalized purity pH 6 (Table 5) ([4]; pH 6, repeat of Example 6 for pairs with/without Asn-Asn at 21-22) | Normalized purity pH 7.5 (Table 5) ([4]; pH 7.5, repeat of Example 6 for pairs with/without Asn-Asn at 21-22) | Normalized purity pH 9 (Table 5) ([4]; pH 9, repeat of Example 6 for pairs with/without Asn-Asn at 21-22)
1 | CC[C@H](C)[C@@H](C(=O)N[C@@H](CC(C)C)C(=O)N[C@@H](CO)C(=O)N[C@@H](CO)C(=O)N[C@H](C(=O)N[C@@H](CCC(=O)O)C(=O)N[C@H](C(=O)NCC(=O)N[C@@H](CO)C(=O)N[C@@H](CC(N)=O)C(=O)N[C@H](C(=O)N1CCC[C@H]1C(N)=O)[C@@H](C)O)C(C)C)[C@@H](C)O)N(C)C(=O)[C@H](C)NC(=O)CN(C)C(=O)[C@H](Cc1ccccc1)NC(=O)[C@H](CCCNC(=N)N)NC(=O)[C@H](CCC(N)=O)NC(=O)[C@H](CC(C)C)NC(=O)[C@H](Cc1ccccc1)NC(=O)[C@H](Cc1c[nH]cn1)NC(=O)[C@H](C)NC(=O)[C@H](CC(C)C)NC(=O)[C@H](CCCNC(=N)N)NC(=O)[C@H](CCC(=O)O)NC(=O)[C@@H](NC(=O)[C@H](C)NC(=O)[C@@H]1CSSC[C@H](NC(=O)[C@H](CCCNC(=N)N)NC(=O)CC[C@H](NC(=O)CCCCCCCCCCCCCCCCCCC(=O)O)C(=O)O)C(=O)N[C@@H](CCC(N)=O)C(=O)N[C@@H]([C@@H](C)O)C(=O)N[C@@H](C)C(=O)N[C@@H]([C@@H](C)O)C(=O)N1)[C@@H](C)O [Compound 96, [19CD]-isoGlu-R-C( )-QTAT-C( )-ATERLAHFLQRF-Gly(Me)-A-Ile(Me)-LSSTEVGSNTP-NH2] ({C20 diacid-γGlu}-RCQTATCATERLAHFLQRF[Sar]A[NMeI]LSSTEVGSNTP-NH2; disulfide 2-7) | 0.33 | 0.28 | FND | FND | FND | A (A = >90%) | A (A = >90%) | A (A = >90%) | A (A = >90%) | – | – | – | –
2 | CC[C@H](C)[C@@H](C(=O)N[C@@H](CC(C)C)C(=O)N[C@@H](CO)C(=O)N[C@@H](CO)C(=O)N[C@H](C(=O)N[C@@H](CCC(=O)O)C(=O)N[C@H](C(=O)NCC(=O)N[C@@H](CO)C(=O)N[C@@H](CCCN)C(=O)N[C@H](C(=O)N1C[C@H](O)C[C@H]1C(N)=O)[C@@H](C)O)C(C)C)[C@@H](C)O)N(C)C(=O)[C@H](C)NC(=O)CN(C)C(=O)[C@H](Cc1ccccc1)NC(=O)[C@H](CO)NC(=O)[C@H](CO)NC(=O)[C@H](CCCNC(=N)N)NC(=O)[C@H](CCC(N)=O)NC(=O)[C@H](CC(C)C)NC(=O)[C@H](Cc1ccccc1)NC(=O)[C@H](Cc1c[nH]cn1)NC(=O)[C@H](C)NC(=O)[C@H](CC(C)C)NC(=O)[C@H](CCCNC(=N)N)NC(=O)[C@H](CCC(=O)O)NC(=O)[C@@H](NC(=O)[C@H](C)NC(=O)[C@@H]1CSSC[C@H](NC(=O)[C@H](CCCNC(=N)N)NC(=O)CC[C@H](NC(=O)CCCCCCCCCCCCCCCCCCC(=O)O)C(=O)O)C(=O)NCC(=O)N[C@@H]([C@@H](C)O)C(=O)N[C@@H](C)C(=O)N[C@@H]([C@@H](C)O)C(=O)N1)[C@@H](C)O [Compound 51, [19CD]-isoGlu-R-C( )-GTAT-C( )-ATERLAHFLQRSSF-Gly(Me)-A-Ile(Me)-LSSTEVGS-Orn-T-Hyp-NH2] ({C20 diacid-γGlu}-RCGTATCATERLAHFLQRSSF[Sar]A[NMeI]LSSTEVGS[Orn]T[Hyp]-NH2; disulfide 2-7) | 0.08 | 0.11 | FND | FND | FND | A (A = >90%) | B (B = 70-90%) | B (B = 70-90%) | B (B = 70-90%) | – | – | – | –
3 | CC[C@H](C)[C@@H](C(=O)N[C@@H](CC(C)C)C(=O)N[C@@H](CO)C(=O)N[C@@H](CO)C(=O)N[C@H](C(=O)N[C@@H](CCC(=O)O)C(=O)N[C@H](C(=O)NCC(=O)N[C@@H](CO)C(=O)N[C@@H](CC(N)=O)C(=O)N[C@H](C(=O)N1C[C@H](O)C[C@H]1C(N)=O)[C@@H](C)O)C(C)C)[C@@H](C)O)N(C)C(=O)[C@H](C)NC(=O)CN(C)C(=O)[C@H](Cc1ccccc1)NC(=O)[C@H](CO)NC(=O)[C@H](CO)NC(=O)[C@H](CCCNC(=N)N)NC(=O)[C@H](CCC(N)=O)NC(=O)[C@H](CC(C)C)NC(=O)[C@H](Cc1ccccc1)NC(=O)[C@H](CCCC(=O)O)NC(=O)[C@H](C)NC(=O)[C@H](CC(C)C)NC(=O)[C@H](CCCNC(=N)N)NC(=O)[C@H](CC(=O)O)NC(=O)[C@@H](NC(=O)[C@H](C)NC(=O)[C@@H]1CSSC[C@H](NC(=O)[C@H](CCCNC(=N)N)NC(=O)CC[C@H](NC(=O)CCCCCCCCCCCCCCCCCCC(=O)O)C(=O)O)C(=O)N[C@@H](CCC(N)=O)C(=O)N[C@@H]([C@@H](C)O)C(=O)N[C@@H](C)C(=O)N[C@@H]([C@@H](C)O)C(=O)N1)[C@@H](C)O [Compound 89, [19CD]-isoGlu-R-C( )-QTAT-C( )-ATDRLA-Aad-FLQRSSF-Gly(Me)-A-Ile(Me)-LSSTEVGSNT-Hyp-NH2] ({C20 diacid-γGlu}-RCQTATCATDRLA[Aad]FLQRSSF[Sar]A[NMeI]LSSTEVGSNT[Hyp]-NH2; disulfide 2-7) | 0.16 | 0.2 | FND | FND | FND | A (A = >90%) | A (A = >90%) | A (A = >90%) | B (B = 70-90%) | A (A = >90%) | A (A = >90%) | A (A = >90%) | A (A = >90%)
4 | CC[C@H](C)[C@@H](C(=O)N[C@@H](CC(C)C)C(=O)N[C@@H](CO)C(=O)N[C@@H](CO)C(=O)N[C@H](C(=O)N[C@@H](CCC(=O)O)C(=O)N[C@H](C(=O)NCC(=O)N[C@@H](CO)C(=O)N[C@@H](CC(N)=O)C(=O)N[C@H](C(=O)N1C[C@H](O)C[C@H]1C(N)=O)[C@@H](C)O)C(C)C)[C@@H](C)O)N(C)C(=O)[C@H](C)NC(=O)CN(C)C(=O)[C@H](Cc1ccccc1)NC(=O)[C@H](CO)NC(=O)[C@H](CO)NC(=O)[C@H](CCCNC(=N)N)NC(=O)[C@H](CCC(N)=O)NC(=O)[C@H](CC(C)C)NC(=O)[C@H](Cc1ccccc1)NC(=O)[C@H](CC(=O)O)NC(=O)[C@H](C)NC(=O)[C@H](CC(C)C)NC(=O)[C@H](CCCNC(=N)N)NC(=O)[C@H](CCC(=O)O)NC(=O)[C@@H](NC(=O)[C@H](C)NC(=O)[C@@H]1CSSC[C@H](NC(=O)[C@H](CCCNC(=N)N)NC(=O)CC[C@H](NC(=O)CCCCCCCCCCCCCCCCCCC(=O)O)C(=O)O)C(=O)NCC(=O)N[C@@H]([C@@H](C)O)C(=O)N[C@@H](C)C(=O)N[C@@H]([C@@H](C)O)C(=O)N1)[C@@H](C)O [Compound 54, [19CD]-isoGlu-R-C( )-GTAT-C( )-ATERLADFLQRSSF-Gly(Me)-A-Ile(Me)-LSSTEVGSNT-Hyp-NH2] ({C20 diacid-γGlu}-RCGTATCATERLADFLQRSSF[Sar]A[NMeI]LSSTEVGSNT[Hyp]-NH2; disulfide 2-7) | 0.08 | 0.14 | FND | FND | FND | A (A = >90%) | A (A = >90%) | B (B = 70-90%) | B (B = 70-90%) | – | – | – | –

Source: patent publication US20210115104A1, “AMYLIN ANALOGUES” (Zealand Pharma A/S, priority 2015, published 2021)
